From patent US20080312162A1, “Methods and Compositions for Enzyme-Specific Activation of Carbohydrate-Conjugated Prodrugs” (THE OHIO STATE UNIVERSITY, priority 2004, published 2008)
Several values for one entry are separate records, joined by “and”; a condition that tells them apart may be missing. Equal values may be shown once. Entries after “also recorded” stand apart in the source; their conditions may differ.

Assays:
Format in all cases: cell-based, human
[1] = test system: K562; experiment: Beta-glucosidase inhibition assay (DMDP) in K562 cell line; conditions: for Cell growth relative to untreated cells: higher concentration (0.4 μM)
From the text: Similar results showing preferential activation of glucose conjugates relative to galactose or lactose conjugates were obtained in other cancer cell lines. The glucose-conjugated compound is apparently cleaved by native glucosidase inside of the cancer cells resulting in release of a biologically active anti-cytostatic compound. The cleavage of glucose conjugates by an enzymatic pathway to release an active drug is shown by a beta-glucosidase inhibition assay. FIG. 5 is a graph showing the results of a beta-glucosidase inhibition assay studied in K562 cell line. Two different concentrations of prodrug were tested in this experiment. For compound 24, 17-demethoxy-17-[(2-β-glucopyranosylethyl)amino]geldanamycin], the higher concentration is 0.4 μM and the lower concentration is 0.2 μM. […] Percentages of cell growth were calculated compared to control cells in the absence of beta-glucosidase inhibitor and prodrug solution. Each bar represents the average of three experiments. […] While the higher concentration of compound 24 limits cells growth to about 20% of untreated cells, when the beta-glucosidase inhibitor DMDP is added, the high concentration of compound 24 only reduces growth to about 60% that of untreated cells.
Beta-glucosidase Inhibition assay. To verify if the cleavage of sugar moieties from compound 24 is crucial for the anticancer activity, we performed the β-glucosidase inhibition study in K562 cell line. The K562 cells were treated with β-glucosidase inhibitor 2, 5-dihydroxymethyl-3,4-dihydroxypyrrolidine (DMDP) solution (100 μM) for 10 minutes before adding carbohydrate-geldanamycin conjugates. The concentrations of glucose-GA were 0.4 μM and 0.2 μM, respectively. […] From the structures of compounds 24 and 25, the only difference between these two compounds is the sugar moiety, which is glucose in compound 24 and galactose in compound 25.
Beta-Glucosidase inhibition assay for compound 2425. […] The exponentially growing cancer cells were incubated in three different conditions (cells with different concentration of test compounds and DMDP, cells with different concentration of test compounds only, and cell with DMDP only) for 72 hours at 37° C. (5% CO2, 100% humidity). The control cells were exposed to fresh medium only. Then, the anticancer activities of compound 24, 25 were measured with MTS assay as described above. The percentages of cell growth for tested compounds vs. control cells were calculated by the absorbance at 490 nm.

[2] = test system: SW620; experiment: Anticancer activity (MTS assay) in SW620 cells
Description: (§1) The anticancer activities of six prodrug conjugates synthesized by the method were tested for anticytostatic activity by using the MTS assay to show suppression of cell growth. Four different human cell lines, including colorectal carcinoma cells (SW620, HT 29), breast cancer cells (MCF7), and leukemia cells (K562), were tested using the MTS assay. Each compound was tested at concentration 1-25,000 nM. GA also was tested for comparison. The inhibition of cell growth was calculated compared to control cells without drug treatment. For purposes of this description of in vitro cell culture testing, drug concentrations are given for the molar concentrations of the chemotherapeutic agents present in the media at the initiation of the test. Skilled artisans are aware of the various conversion factors necessary to convert media concentrations to tissue concentration targets and the dose necessary to achieve such a dose.
(§2) Cell Culture. Cell lines SW620, HT29, MCF7, and K562 were cultured in RPMI 1640 (Invitrogen, Carlsbad, Calif., USA) supplemented with 10% fetal bovine serum (FBS), 1% non-essential amino acid and Penicillin (100 u/mL) Streptomycin (100 ug/mL) in a humidified atmosphere of 5% CO2 and 95% air at 37° C. The culture mediums were changed every 2-3 days.
(§3) Anticancer activity of compound (24-29) (MTS assay). Cells (2,000-10,000) were seeded in 96 well plates in RPMI-1640 and incubated for 24 hours. The exponentially growing cancer cells were incubated with various concentrations of compounds for 72 hours at 37° C. (5% CO2, 95% humidity).

[3] = test system: HT29; experiment: Anticancer activity (MTS assay) in HT29 cells
Description: as §1, §2, §3

[4] = test system: MCF7; experiment: Anticancer activity (MTS assay) in MCF7 cells; conditions: 72 hours
Description: as §1, §2, §3

[5] = test system: K562; experiment: Anticancer activity (MTS assay) in K562 cells; conditions: 72 hours
Description: as §1, §2, §3

[6] = test system: various cancer cells; experiment: Anticancer activity (MTS assay), pooled statements on various cancer cells; conditions: no added enzyme
Description: as §1, §3

[7] = test system: SW620, HT29 and K562; experiment: Beta-galactosidase cleavage assay; conditions: 2 units beta-galactosidase
Description: Thus, galactose-GA and lactose-GA conjugates were exposed to beta-galactosidase and observed for enhancement of anticancer activities. […] For compounds 25-29, 1 μM concentration of prodrug compounds were used. GA (0.01 μM), compound 24 (0.1 μM) and beta-galactosidase (2 units) was used in the cell culture. Each bar in the graphs shown is the average of three experiments. Relative percentage of cell growth was calculated compared to control cells in the absence of beta-galactosidase and drug solution. Cell lines SW620, HT29 and K562 were exposed to 2 units of beta-galactosidase and then treated individually with 1 μM of compounds 25-29. At this concentration, galactose-geldanamycin conjugates alone were relatively devoid of anticancer activity.
Beta-galactosidase cleavage assay. Cells (2,000-10,000) were seeded in 96 well plates in RPMI-1640 and incubated for 24 hours. The exponentially growing cancer cells were incubated with 2 units of beta-galactosidase for 10 minutes. The same concentration solutions of various compounds (25-29) were added to each well. The control cells were exposed to fresh medium only or to beta-galactosidase alone. After incubated for 72 hours at 37° C. (5% CO2, 100% humidity), the cell growth was measured with MTS assay as described above. The percentages of cell growth of tested compounds vs. control were calculated by measuring the absorbance at 490 nm.

Row | Compound | IC50 ([2]; 72 hours) | IC50 ([3]; 72 hours) [µM] | IC50 [4] [µM] | IC50 [5] [µM] | also measured
1 | OCC1NC(CO)C(O)C1O (centres unmarked) [DMDP, 2,5-dihydroxymethyl-3,4-dihydroxypyrrolidine, reference compound] | – | – | – | – | Effect on cell growth ([1]; DMDP alone): did not have any effect on cell growth
2 | COC1=C2C[C@@H](C)C[C@H](OC)[C@H](O)[C@@H](C)/C=C(\C)[C@H](OC(N)=O)[C@@H](OC)/C=C\C=C(/C)C(=O)NC(=CC1=O)C2=O [GA, Geldanamycin, reference compound] | – | – | – | – | IC50 ([2]; Homo sapiens, SW-620, 72 hours): 0.0062 µM; IC50 ([3]; Homo sapiens, HT-29, 72 hours): 0.0245 µM; IC50 ([4]; Homo sapiens): 0.0065 µM; IC50 ([5]; Homo sapiens): 0.0221 µM
3 | COC1C=CC=C(C)C(=O)NC2=CC(=O)C(NCCOC3OC(CO)C(O)C(O)C3O)=C(CC(C)CC(OC)C(O)C(C)C=C(C)C1OC(N)=O)C2=O (stereo not drawn) [compound 24, 17-demethoxy-17-[(2-β-glucopyranosylethyl)amino]geldanamycin] | 0.07 µM and 0.0702 µM | 0.105 | 0.754 | 0.381 | Anticytostatic activity against tumor cells [6]: showed anticytostatic activity; Anticancer activity IC50 in various cancer cells ([6]; various cancer cells): within the nanomolar range; IC50 ([6]; various cancer cells): 0.0702 to 0.381 µM; Decrease of activity after treatment with DMDP ([1]; DMDP 100 μM): 3 fold; Effect of beta-glucosidase inhibitor DMDP on activity ([1]; DMDP 100 μM, listed as glucose-GA): completely abolished; Cell growth relative to untreated cells ([1]; with beta-glucosidase inhibitor DMDP (100 μM)): about 60%; Cell growth relative to untreated cells ([1]; without DMDP): about 20%; Effect of beta-galactosidase treatment on activity [7]: did not affect biological activity; also recorded: relatively unaffected; Effect of beta-galactosidase treatment on activity ([7]; listed as glucose-GA): not affected
4 | COC1C=CC=C(C)C(=O)NC2=CC(=O)C(NCCOC3OC(CO)C(O)C(O)C3O)=C(CC(C)CC(OC)C(O)C(C)C=C(C)C1OC(N)=O)C2=O (stereo not drawn) [compound 25, 17-demethoxy-17-[(2-β-galactopyranosylethyl)amino]geldanamycin] | – | > 14 | > 25 | > 23 | Effect of beta-glucosidase inhibitor DMDP on activity ([1]; DMDP 100 μM): did not affect; also recorded: relatively unaffected
5 | COC1C=CC=C(C)C(=O)NC2=CC(=O)C(NCCCOC3OC(CO)C(O)C(O)C3O)=C(CC(C)CC(OC)C(O)C(C)C=C(C)C1OC(N)=O)C2=O (centres unmarked) [compound 26] | > 14 µM | > 6 | > 12 | > 14 | –
6 | COC1C=CC=C(C)C(=O)NC2=CC(=O)C(NCCCCCOC3OC(CO)C(O)C(O)C3O)=C(CC(C)CC(OC)C(O)C(C)C=C(C)C1OC(N)=O)C2=O (centres unmarked) [compound 27] | > 13 µM | > 13 | > 17 | > 19 | –
7 | COC1C=CC=C(C)C(=O)NC2=CC(=O)C(NCCOCCOC3OC(CO)C(O)C(O)C3O)=C(CC(C)CC(OC)C(O)C(C)C=C(C)C1OC(N)=O)C2=O (stereo not drawn) [compound 28, 17-demethoxy-17-{[2-(2-β-galactopyranosylethyl)ethyl]amino}geldanamycin] | > 11 µM | > 13 | > 22 | > 15 | –
8 | COC1C=CC=C(C)C(=O)NC2=CC(=O)C(NCCOC3OC(CO)C(OC4OC(CO)C(O)C(O)C4O)C(O)C3O)=C(CC(C)CC(OC)C(O)C(C)C=C(C)C1OC(N)=O)C2=O (stereo not drawn) [compound 29, 17-demethoxy-17-[(2-β-lactopyranosylethyl)amino]geldanamycin] | > 20 µM | > 25 | > 22 | > 25 | –
